Experiment: Muscle relaxant activity in rat diaphragm assessed as inhibition of electrically-stimulated contraction
Format: functional

For C/C=C1/C[N+]2(C)[C@H]3C[C@@H]1[C@@](CO)(C(=O)OC)[C@@H]2Cc1c3[nH]c2cc(OC)ccc12 [11-METHOXY MACUSINE A], which Activity is on record?
Its Activity is 0.16 mg/kg.

— ChEMBL document CHEMBL1151295, “11-Methoxy-macusine A. A new quaternary alkaloid from Strychnos angolensis” (1983)
